Consider 11 compounds from ChEMBL document CHEMBL5233249, “Recent advancements in the development of heterocyclic anti-inflammatory agents” (Eur J Med Chem, 2020).

In data set [1] the test system is Mus musculus. The data set is described as follows: Anti-inflammatory activity in Carrageenan-induced paw edema in PO dosed mouse at 100 mg/kg assessed as inhibition of edema measured after 3 hr relative to control. Set-up: scale not given: the % may be the effect or the level left. It counts as functional. (In the carrageenan paw model, swelling and tenderness develop within hours.)

Data set [2] has as its target Prostaglandin G/H synthase 1 (Homo sapiens, UniProt P23219). The data set is described as follows: Inhibition of COX-1 (unknown origin) at 40 uM relative to control.
Data set [3] can be described thus: Anti-inflammatory activity assessed as protein denaturation using bovine serum albumin at 250 uM relative to control. It counts as functional.
Data set [4] is described as follows: Anti-inflammatory activity assessed as protein denaturation using bovine serum albumin at 500 uM relative to control. It counts as functional.
Data set [5] can be described thus: Anti-inflammatory activity assessed as protein denaturation using egg albumin at 100 uM relative to control. The class given is functional.
Data set [6] can be described thus: Anti-inflammatory activity assessed as protein denaturation using egg albumin at 250 uM relative to control. The class given is functional.
Data set [7] can be described thus: Anti-inflammatory activity assessed as protein denaturation using bovine serum albumin at 100 uM relative to control. The class given is functional.
The nature of data set [8]: Anti-inflammatory activity assessed as protein denaturation using egg albumin at 500 uM relative to control. It counts as functional.
A short description of data set [9]: Inhibition of MAPK p38 (unknown origin). Set-up: species or system Homo sapiens.
Data set [10] in a line: Anti-inflammatory activity assessed as protein denaturation using bovine serum albumin relative to control. It counts as functional.
Data set [11] has as its target Tumor necrosis factor (Homo sapiens) (UniProt P01375). Briefly: Inhibition of TNF-alpha (unknown origin) relative to control. Conditions: concentration not given here.
The subject of data set [12] is Rattus norvegicus. Briefly: Anti-inflammatory activity in Carrageenan-induced rat paw edema in Wistar rat assessed as reduction in inhibition of edema measured after 4 hrs relative to control. The class given is functional. Also noted: scale not given: the % may be the effect or the level left.
Data set [13] can be described thus: Antioxidant activity assessed as DPPH radical scavenging activity incubated for 20 mins relative to control. The class given is functional.
For data set [14], the system named is Rattus norvegicus. Briefly: Anti-inflammatory activity in Carrageenan-induced paw edema in PO dosed Swiss albino rat model at 10 mg/kg assessed as inhibition in volume of edema measured after 1 hrs relative to control. The class given is functional.
For data set [15], the system named is Rattus norvegicus. The data set is described as follows: Anti-inflammatory activity in Carageenan-induced foot paw edema in Sprague-Dawley rat at 50 mg/kg assessed as reduction in paw edema volume relative to control. The class given is functional. Also noted: scale not given: the % may be the effect or the level left.
For data set [16], the target named is T1, Prostaglandin G/H synthase 1 (Ovis aries, UniProt P05979).
T1 sequence (P05979 whole entry): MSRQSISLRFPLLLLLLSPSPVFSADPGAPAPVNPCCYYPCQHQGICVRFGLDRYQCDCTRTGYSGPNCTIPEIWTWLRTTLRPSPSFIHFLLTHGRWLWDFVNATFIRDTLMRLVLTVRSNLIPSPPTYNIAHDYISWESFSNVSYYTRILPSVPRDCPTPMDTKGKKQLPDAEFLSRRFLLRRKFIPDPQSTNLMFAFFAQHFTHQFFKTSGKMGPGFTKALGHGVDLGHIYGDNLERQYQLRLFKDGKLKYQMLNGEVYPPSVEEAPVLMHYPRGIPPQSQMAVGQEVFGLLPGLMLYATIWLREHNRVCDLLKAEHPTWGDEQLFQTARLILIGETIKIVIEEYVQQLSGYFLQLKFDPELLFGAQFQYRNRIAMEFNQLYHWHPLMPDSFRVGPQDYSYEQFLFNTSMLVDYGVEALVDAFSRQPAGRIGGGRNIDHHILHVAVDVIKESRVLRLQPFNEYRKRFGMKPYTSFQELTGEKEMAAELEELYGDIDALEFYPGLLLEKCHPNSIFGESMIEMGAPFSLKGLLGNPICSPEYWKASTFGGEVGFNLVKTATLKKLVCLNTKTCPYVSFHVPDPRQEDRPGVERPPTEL
The data set is described as follows: Inhibition of ovine COX-1 by EIA method.

Data set [17] concerns Rattus norvegicus. The data set is described as follows: Anti-ulcerative activity in aspirin induced Wistar rat ulcer model assessed as inhibition of ulcer index at 20 mg/kg,po. It counts as functional.
The subject of data set [18] is Rattus norvegicus. The data set is described as follows: Anti-inflammatory activity against formalin-induced foot paw edema in PO dosed rat at 10 mg/kg assessed as reduction in volume of edema measured after 5 hr relative to control. It counts as functional. Set-up: scale not given: the % may be the effect or the level left.
Data set [19] can be described thus: Selectivity index, ratio of IC50 for ovine COX1 to IC50 for recombinant human COX2.
The subject of data set [20] is Rattus norvegicus. The data set is described as follows: Anti-ulcerative activity in Carrageenan-induced Sprague-Dawley rat ulcer model assessed as inhibition of ulcer index at 10 mg/kg,po. It counts as functional.
Data set [21] deals with Rattus norvegicus. Briefly: Anti-inflammatory activity against formalin-induced foot paw edema in PO dosed rat at 10 mg/kg assessed as inhibition of edema measured after 5 hr relative to control. Set-up: scale not given: the % may be the effect or the level left. The class given is functional.
The subject of data set [22] is Rattus norvegicus. Briefly: Anti-inflammatory activity against formalin-induced foot paw edema in PO dosed rat at 10 mg/kg assessed as inhibition of edema measured after 4 hr relative to control. The class given is functional.
Data set [23] deals with Rattus norvegicus. The data set is described as follows: Anti-inflammatory activity against formalin-induced foot paw edema in Wistar rat at 5 mg/kg, po assessed as inhibition of edema measured after 4 hr relative to control. It counts as functional.
The test system of data set [24] is Rattus norvegicus. Briefly: Anti-inflammatory activity in Carageenan-induced paw edema Wistar rat model assessed as reduction in paw edema volume relative to control. It counts as functional. Also noted: scale not given: the % may be the effect or the level left.
Data set [25] relates to Rattus norvegicus. The data set is described as follows: Anti-inflammatory activity in Wistar rat assessed as reduced hind paw edema at 25 mg/kg relative to control. It counts as functional. Also noted: scale not given: the % may be the effect or the level left.
In data set [26] the test system is Mus musculus. Briefly: Anti-inflammatory activity against dimethylbenzene-induced auricular edema Kunming mouse model assessed as inhibition of ear edema at 100 mg/kg, po administered once daily relative to control. The class given is functional. Set-up: scale not given: the % may be the effect or the level left.
Data set [27] relates to Mus musculus. Briefly: Anti-inflammatory activity in Carrageenan-induced paw edema mouse model assessed as inhibition of granuloma measured after 24 hrs relative to control. The class given is functional.
Data set [28] relates to Mus musculus. The data set is described as follows: Anti-inflammatory activity against dimethylbenzene-induced auricular edema Kunming mouse model assessed as inhibition of ear edema at 50 mg/kg, po administered once daily relative to control. The class given is functional. Also noted: scale not given: the % may be the effect or the level left.
Data set [29] relates to Mus musculus. Briefly: Anti-inflammatory activity in Carrageenan-induced paw edema in […] mouse model assessed as inhibition of edema at 200 mg/kg, po relative to control. The class given is functional. Set-up: scale not given: the % may be the effect or the level left.
Data set [30] deals with Rattus norvegicus. Briefly: Anti-inflammatory activity in Carrageenan-induced paw edema in Wistar albino rat assessed as inhibition of paw edema measured after 2 hr relative to control. It counts as functional.
For data set [31], the system named is Rattus norvegicus. Briefly: Anti-inflammatory activity in Carrageenan-induced paw edema in Wistar albino rat assessed as inhibition of paw edema measured after 3 hr relative to control. The class given is functional.
Data set [32] has as its system Rattus norvegicus. The data set is described as follows: Anti-inflammatory activity in Carrageenan-induced paw edema in Wistar albino rat assessed as inhibition of paw edema measured after 1 hr relative to control. It counts as functional.
Data set [33] relates to Rattus norvegicus. Briefly: Anti-inflammatory activity against Carrageenan-induced paw edema in Wistar albino rat ulcerogenic activity assessed as reduction in severity index. It counts as functional.
The test system of data set [34] is Rattus norvegicus. The data set is described as follows: Anti-inflammatory activity against formalin-induced foot paw edema in PO dosed rat at 10 mg/kg assessed as inhibition of edema measured after 1 hr relative to control. The class given is functional. Also noted: scale not given: the % may be the effect or the level left.
The species entered for data set [35] is Rattus norvegicus. The data set is described as follows: Antinociceptive activity in Wistar rat assessed as hot-plate change in latency by hot plate test method relative to control. It counts as organism-based. Conditions: in vivo. For orientation: In hot-plate and tail-flick tests a longer latency is read as antinociception.
The subject of data set [36] is Rattus norvegicus. The data set is described as follows: Ulcerogenic activity in Swiss albino Wistar rat assessed as ulcer lesion score at 100 mg/kg, po. The class given is functional.
Data set [37] deals with Mus musculus. The data set is described as follows: Anti-inflammatory activity against Carrageenan-induced paw edema in mouse model assessed as inhibition of edema at 100 mg/kg measured after 4 hrs relative to control. The class given is functional. Also noted: scale not given: the % may be the effect or the level left.

Tumor necrosis factor (Homo sapiens), sequence (P01375 whole entry, looked up): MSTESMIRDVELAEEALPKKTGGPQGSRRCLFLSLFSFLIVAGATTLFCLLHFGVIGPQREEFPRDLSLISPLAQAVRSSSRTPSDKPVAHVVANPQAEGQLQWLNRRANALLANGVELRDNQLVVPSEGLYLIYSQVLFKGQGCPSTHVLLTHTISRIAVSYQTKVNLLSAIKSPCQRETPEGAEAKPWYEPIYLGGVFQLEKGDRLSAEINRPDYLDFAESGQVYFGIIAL
Prostaglandin G/H synthase 1 (Homo sapiens, UniProt P23219), sequence (P23219 whole entry): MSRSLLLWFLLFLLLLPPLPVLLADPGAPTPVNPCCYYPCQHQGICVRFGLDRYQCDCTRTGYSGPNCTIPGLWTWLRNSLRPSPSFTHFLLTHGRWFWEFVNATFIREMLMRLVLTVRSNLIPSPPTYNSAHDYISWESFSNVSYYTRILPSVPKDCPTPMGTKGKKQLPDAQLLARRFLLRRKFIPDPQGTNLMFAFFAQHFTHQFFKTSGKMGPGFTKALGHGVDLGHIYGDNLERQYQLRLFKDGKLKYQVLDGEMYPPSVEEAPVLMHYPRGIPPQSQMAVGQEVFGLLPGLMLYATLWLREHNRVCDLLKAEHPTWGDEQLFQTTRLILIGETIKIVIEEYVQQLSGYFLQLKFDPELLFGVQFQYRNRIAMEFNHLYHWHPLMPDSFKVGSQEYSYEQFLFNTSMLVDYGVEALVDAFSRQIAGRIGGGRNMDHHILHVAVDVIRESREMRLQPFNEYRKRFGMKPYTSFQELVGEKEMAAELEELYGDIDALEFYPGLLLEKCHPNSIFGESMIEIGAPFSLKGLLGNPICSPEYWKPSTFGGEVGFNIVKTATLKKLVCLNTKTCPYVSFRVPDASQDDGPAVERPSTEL

As to `COc1ccc(NCc2nc3ccccc3n2C(=O)c2ccccc2)cc1`, in the data set with Mus musculus [1], the Activity stood at 40.3%. Besides, in [2], the IC50 turned out to be 2500 nM.
In the case of `COc1ccc(NC(=O)c2cc(-c3ccncc3)n[nH]2)cc1`, the Activity was 80% in data set [3]; 90% in [4]; 60% in data set [5]; 85% in [6]; 65% in [7]; 95% in data set [8].
In turn, `O=C(Nc1ccc(Cl)cc1)c1ccc(Nc2ncnc3c2cnn3-c2ccccc2)cc1` returned a half-inhibitory concentration (IC50) in data set [9] of 1630 nM. Also, the Activity was 82.3% in data set [10], 83.73% with Rattus norvegicus [12] and 74.9% in [13]. In [11], this compound registered an inhibition of 62.3%.
On to `Cc1c(-c2ccccc2)n(C(=O)c2ccc(Cl)cc2)c2ccc(S(C)(=O)=O)cc12`, for which the inhibition in vivo at 10 mg/kg in the data set with Rattus norvegicus [14] was found to be 73.5%.
`CC1=C(c2ccc(C(=O)NNC(=S)Nc3ccccc3)cn2)SC2Nc3ccccc3N12` (stereo not given): the Activity with Rattus norvegicus [15] is 79.5%. Also, the IC50 in [16] is 44 nM.
Regarding `CS(=O)(=O)c1ccc(-n2cc(/C=C3\NC(=S)N(c4ccccc4)C3=O)c(-c3ccccc3)n2)cc1`, in the data set on Rattus norvegicus [17], the UI came out at 3.87. The Activity with Rattus norvegicus [18] was 56%. For the same compound, the Selectivity Index in data set [19] is 9.15.
For the compound `Cc1ccc(-c2cc(C(F)(F)F)nn2-c2ccc(S(N)(=O)=O)cc2)cc1` [CELECOXIB], the results for the UI with Rattus norvegicus [20] and with Rattus norvegicus [17] were 2.93 and 2.99, respectively. The Activity came to 69% in the data set with Rattus norvegicus [21]; 87.59% in the data set with Rattus norvegicus [24]; 57.14% with Rattus norvegicus [25]; 36% in the data set with Mus musculus [26]; 79% with Mus musculus [28]; 17.5% in the data set on Mus musculus [29]. Besides, the inhibition in vivo at 10 mg/kg with Rattus norvegicus [22] worked out at 46.4%. Besides, in the data set with Rattus norvegicus [23], the inhibition in vivo at 5 mg/kg was 46.4%. The “inhibition (INH)” value in the data set on Mus musculus [27] was found to be 8.6%.
As for `O=C(NNC(=S)NCc1ccccc1)c1ccc(C2=CN3c4ccccc4NC3S2)nc1` (stereo not given), the Activity in the data set with Rattus norvegicus [15] was 75.9%. In [16], this compound gave an IC50 of 75 nM.
In the case of `Cc1ccccc1-c1nnc(Cn2c(CN3CCOCC3)nc3ccccc32)o1`, the “inhibition (INH)” value was 68.31% with Rattus norvegicus [30], 31.25% in the data set with Rattus norvegicus [31] and 62.29% with Rattus norvegicus [32]. For the same compound, the Activity with Rattus norvegicus [33] was 0.32 mm.
Consider `CCOC(=O)c1c(SC)nn(C(=O)CSc2nnc(CCCOc3ccc(C)cc3C(=O)c3ccc(F)cc3)o2)c1N`, for which the Activity in the data set with Rattus norvegicus [34] is listed as 52.17%; in the data set filed under Rattus norvegicus [35], 92.3%.
For the compound `O=C(NCn1c(-c2ccccc2Cl)nc2ccccc21)c1ccc(Cl)cc1`, the Activity in the data set on Rattus norvegicus [36] stood at 13.53 mm; in the data set with Mus musculus [37], 62.5%.

As usually defined, the IC50 is the concentration needed to halve the response being measured. Broadly, the inhibition is the change of the read-out against control, counted positive when it falls. Usually inhibition in vivo stands for the relative decrease from the control value, in per cent.
